Measurements reported in the supplement of paper PMC11061612.

Key:
[1] = tested on: ACHN (Kidney Carcinoma); assay: Bliss excess, mean over the matrix (fraction); higher = more synergy
Procedure, shortened: (§1)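 Cell lines grown in DMEM/F12 or RPMI with 10% FBS were plated in 1536-well plates and held 24 hours at 37°C, 5% CO2 before 72 hours of exposure to two-drug dose matrices, with DMSO typically at 0.2%. CellTiter-Glo 2.0 luminescence gave viability, which was converted to inhibition. Vehicle wells were set to 0 and blank wells to 1. Combination Emax is the second-highest inhibition in the matrix, and Bliss excess is the observed combination effect minus the expected EA + EB − EA·EB, where EA and EB are the single-agent effects.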

[2] = tested on: C-4-I (Cervical Carcinoma); assay: as above
Procedure, shortened: as §1

[3] = tested on: Ca9-22 (Head and Neck Carcinoma); assay: as above
Procedure, shortened: as §1

[4] = tested on: EW-24 (Ewing's Sarcoma); assay: as above
Procedure, shortened: as §1

[5] = tested on: HGC-27 (Gastric Carcinoma); assay: as above
Procedure, shortened: as §1

[6] = tested on: HSC-4 (Oral Cavity Carcinoma); assay: as above
Procedure, shortened: as §1

[7] = tested on: Hs-766T (Pancreatic Carcinoma); assay: as above
Procedure, shortened: as §1

[8] = tested on: KMOE-2 (Acute Myeloid Leukemia); assay: as above
Procedure, shortened: as §1

[9] = tested on: KYSE-450 (Esophageal Squamous Cell Carcinoma); assay: as above
Procedure, shortened: as §1

[10] = tested on: LU-65 (Non-Small Cell Lung Carcinoma); assay: as above
Procedure, shortened: as §1

[11] = tested on: NCI-H358 (Lung Adenocarcinoma); assay: as above
Procedure, shortened: as §1

[12] = tested on: NEC8 (Other Solid Carcinomas); assay: as above
Procedure, shortened: as §1

[13] = tested on: NUGC-3 (Gastric Carcinoma); assay: as above
Procedure, shortened: as §1

[14] = tested on: OE19 (Esophageal Adenocarcinoma); assay: as above
Procedure, shortened: as §1

[15] = tested on: OSC-20 (Oral Cavity Carcinoma); assay: as above
Procedure, shortened: as §1

[16] = tested on: OVCAR-4 (Ovarian Carcinoma); assay: as above
Procedure, shortened: as §1

[17] = tested on: PWR-1E (Non-Cancerous); assay: as above
Procedure, shortened: as §1

[18] = tested on: TGW (Neuroblastoma); assay: as above
Procedure, shortened: as §1

[19] = tested on: VA-ES-BJ (Other Solid Carcinomas); assay: as above
Procedure, shortened: as §1

[20] = tested on: EoL-1-cell (Acute Myeloid Leukemia); assay: combination Emax (second highest fraction inhibited in the dose matrix, 72 h); higher = more inhibition; extreme values may be limits of the assay
Procedure, shortened: as §1
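Wherever Bliss excess, mean over the matrix is given: after 72 h of two-drug dosing.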

| SMILES | Bliss excess [1] | Bliss excess [2] | Bliss excess [3] | Bliss excess [4] | Bliss excess [5] | Bliss excess [6] | Bliss excess [7] | Bliss excess [8] | Bliss excess [9] | Bliss excess [10] | Bliss excess [11] | Bliss excess [12] | Bliss excess [13] | Bliss excess [14] | Bliss excess [15] | Bliss excess [16] | Bliss excess [17] | Bliss excess [18] | Bliss excess [19] | combination Emax [20] |
| --- | --- | --- | --- | --- | --- | --- | --- | --- | --- | --- | --- | --- | --- | --- | --- | --- | --- | --- | --- | --- |
| C[C@@H]1COCCN1c1cc(C2([S@](C)(=N)=O)CC2)nc(-c2ccnc3[nH]ccc23)n1 [AZD6738] + O=C(c1cc(Cc2n[nH]c(=O)c3ccccc23)ccc1F)N1CCN(C(=O)C2CC2)CC1 [Olaparib] (first compound max 10 µM, 7x7, partner max 10 µM) | -0.0791 | -0.0144 | -0.042 | -0.0177 | 0.0231 | -0.0172 | -0.0039 | 0.0413 | 0.0066 | 0.0026 | -0.0276 | 0.0254 | -0.0296 | -0.133 | 0.0171 | 0.0035 | -0.0632 | -0.0469 | -0.0692 | 0.992 |
| NC1(C(=O)N[C@@H](CCO)c2ccc(Cl)cc2)CCN(c2ncnc3[nH]ccc23)CC1 [Capivasertib] + CC(=O)c1c(C)c2cnc(Nc3ccc(N4CCNCC4)cn3)nc2n(C2CCCC2)c1=O [Palbociclib] (first compound max 10 µM, 7x7, partner max 10 µM) | 0.003 | -0.0334 | 0.0171 | 0.0087 | -0.0085 | -0.0777 | 0.0056 | -0.0566 | 0.0133 | -0.151 | -0.0373 | -0.0104 | 0.0372 | -0.0854 | -0.0005 | -0.0517 | -0.017 | -0.0744 | 0.0144 | 0.858 |
| NC1(C(=O)N[C@@H](CCO)c2ccc(Cl)cc2)CCN(c2ncnc3[nH]ccc23)CC1 [Capivasertib] + CC(C)n1c(=O)n(C)c2cnc3cc(F)c(-c4ccc(OCCCN5CCCCC5)nc4)cc3c21 [AZD1390] (first compound max 10 µM, 7x7, partner max 0.3 µM) | -0.0389 | -0.027 | -0.0368 | -0.218 | -0.053 | -0.0891 | -0.082 | -0.0666 | -0.0209 | -0.248 | -0.0088 | -0.0089 | -0.0372 | -0.0026 | -0.0528 | -0.0488 | -0.0341 | -0.106 | -0.0467 | 0.874 |
| NC1(C(=O)N[C@@H](CCO)c2ccc(Cl)cc2)CCN(c2ncnc3[nH]ccc23)CC1 [Capivasertib] + CCN(CCO)CCCOc1ccc2c(Nc3cc(CC(=O)Nc4cccc(F)c4)[nH]n3)ncnc2c1 [AZD2811] (first compound max 10 µM, 7x7, partner max 1 µM) | -0.0384 | -0.0492 | 0.0117 | -0.0029 | -0.0167 | -0.081 | -0.0559 | -0.0154 | 0.0066 | -0.215 | -0.0521 | -0.0094 | -0.0178 | -0.0513 | 0.0045 | -0.0092 | -0.0124 | -0.0911 | 0.0367 | 1 |
| NC1(C(=O)N[C@@H](CCO)c2ccc(Cl)cc2)CCN(c2ncnc3[nH]ccc23)CC1 [Capivasertib] + COc1nnc2ccc(N3CCC(c4ccc(OCCN5CCN(C)C(=O)[C@H]5C)cc4)CC3)nn12 [AZD5153] (first compound max 10 µM, 7x7, partner max 1 µM) | -0.0094 | 0.046 | -0.0073 | 0.0532 | 0.0097 | 0.0211 | 0.0126 | -0.0211 | -0.0508 | -0.152 | -0.0514 | 0.0363 | 0.0564 | 0.0561 | 0.0093 | -0.0387 | 0.0579 | -0.0364 | 0.0414 | 1 |
| NC1(C(=O)N[C@@H](CCO)c2ccc(Cl)cc2)CCN(c2ncnc3[nH]ccc23)CC1 [Capivasertib] + C[C@@H]1COCCN1C2=NC(=NC(=C2)C3(CC3)[S@](=N)(=O)C)C4=C5C=CNC5=NC=C4 [AZD6738] (first compound max 10 µM, 7x7, partner max 10 µM) | -0.0303 | 0.0234 | -0.0386 | -0.0488 | -0.0182 | -0.0422 | -0.02 | -0.0336 | -0.0423 | -0.137 | -0.0896 | 0.0288 | -0.0639 | -0.0619 | -0.0194 | -0.0267 | -0.0534 | -0.112 | -0.0088 | 1 |
| NC1(C(=O)N[C@@H](CCO)c2ccc(Cl)cc2)CCN(c2ncnc3[nH]ccc23)CC1 [Capivasertib] + Cn1cnc2c(F)c(Nc3ccc(Br)cc3Cl)c(C(=O)NOCCO)cc21 [Selumetinib] (first compound max 10 µM, 7x7, partner max 10 µM) | 0.0379 | 0.0609 | -0.0383 | -0.0223 | -0.0414 | -0.0133 | -0.0045 | 0.0417 | 0.0292 | -0.0119 | -0.0396 | 0.0013 | -0.0007 | 0.0786 | 0.0384 | -0.0254 | -0.0246 | -0.104 | 0.0015 | 1 |
| COc1cccc2c1C(=O)c1c(O)c3c(c(O)c1C2=O)C[C@@](O)(C(=O)CO)C[C@@H]3O[C@H]1C[C@H](N)[C@H](O)[C@H](C)O1 [Doxorubicin] + Cc1cc2ncnn2cc1Nc1ncc2c(n1)n(C1CCOCC1)c(=O)n2C [AZD7648] (first compound max 1 µM, 7x7, partner max 10 µM) | 0.068 | 0.1 | 0.0703 | 0.0145 | 0.0171 | 0.0047 | -0.012 | 0.0867 | 0.0487 | 0.0418 | 0.0186 | 0.0952 | 0.0285 | 0.0189 | 0.0204 | -0.0056 | 0.12 | 0.0041 | 0.0383 | 1 |
| CS(=O)(=O)CCNCc1ccc(-c2ccc3ncnc(Nc4ccc(OCc5cccc(F)c5)c(Cl)c4)c3c2)o1 [Lapatinib] + C[C@@H](Oc1cc(-c2cnn(C3CCNCC3)c2)cnc1N)c1c(Cl)ccc(F)c1Cl [Crizotinib] (first compound max 10 µM, 7x7, partner max 10 µM) | -0.0558 | 0.0399 | -0.0383 | -0.0105 | -0.0903 | -0.0097 | -0.0535 | 0.0174 | -0.0486 | -0.0236 | -0.0522 | -0.0234 | -0.142 | -0.007 | -0.0542 | -0.0231 | -0.0184 | -0.0659 | 0.005 | 0.988 |
| CC(=O)c1c(C)c2cnc(Nc3ccc(N4CCNCC4)cn3)nc2n(C2CCCC2)c1=O [Palbociclib] + CC1(C)CCC(CN2CCN(c3ccc(C(=O)NS(=O)(=O)c4ccc(NCC5CCOCC5)c([N+](=O)[O-])c4)c(Oc4cnc5[nH]ccc5c4)c3)CC2)=C(c2ccc(Cl)cc2)C1 [Venetoclax] (first compound max 10 µM, 7x7, partner max 1 µM) | 0.0329 | -0.0464 | -0.0044 | 0.0021 | 0.046 | -0.0523 | -0.0544 | -0.015 | -0.0407 | -0.0781 | -0.0862 | -0.0265 | -0.0178 | -0.0449 | -0.0545 | -0.0523 | -0.0229 | -0.014 | 0.0104 | 0.994 |
| CC(=O)c1c(C)c2cnc(Nc3ccc(N4CCNCC4)cn3)nc2n(C2CCCC2)c1=O [Palbociclib] + Cc1c2c(nn1C)CSCc1cc(n(C)n1)CSc1cc(c3ccccc3c1)OCCCc1c(C(=O)O)n(C)c3c-2c(Cl)ccc13 [AZD5991] (first compound max 10 µM, 7x7, partner max 1 µM) | -0.0106 | -0.115 | -0.0032 | -0.0178 | -0.0219 | -0.0729 | -0.067 | -0.0002 | -0.0623 | -0.0692 | -0.0249 | 0.0111 | -0.134 | 0.0014 | -0.0337 | -0.0337 | 0.0128 | -0.079 | -0.0101 | 1 |
| CC(=O)c1c(C)c2cnc(Nc3ccc(N4CCNCC4)cn3)nc2n(C2CCCC2)c1=O [Palbociclib] + Cn1cnc2c(F)c(Nc3ccc(Br)cc3Cl)c(C(=O)NOCCO)cc21 [Selumetinib] (first compound max 10 µM, 7x7, partner max 10 µM) | 0.0146 | -0.0119 | 0.0539 | -0.0617 | 0.0403 | -0.0488 | -0.0221 | -0.0028 | 0.0539 | 0.0042 | -0.0489 | -0.0233 | -0.0178 | 0.0203 | -0.0566 | -0.0471 | -0.0609 | 0.0125 | -0.0518 | 0.952 |
| COc1cccc(OCCCN)c1-c1cc(Nc2cnc(C#N)cn2)n[nH]1 [Prexasertib] + C=CCn1c(=O)c2cnc(Nc3ccc(N4CCN(C)CC4)cc3)nc2n1-c1cccc(C(C)(C)O)n1 [AZD1775] (first compound max 1 µM, partner max 1 µM) | -0.0133 | 0.0337 | 0.0833 | -0.1 | 0.108 | -0.0123 | -0.0579 | 0.0637 | 0.219 | 0.0474 | -0.0027 | 0.122 | 0.0979 | 0.114 | -0.0076 | 0.0205 | 0.0706 | 0.0499 | 0.12 | 0.998 |
